Reference: patent US11401264B2, “Heterocyclic compound” (Orizuru Therapeutics, Inc., priority 2018, dated 2022)

Tested on: cardiomyocytes (embryoid bodies) from double knock-in human iPS cell lines (mCherry at TNNI3 locus)
Experiment: Experimental Example 3: mCherry expression in TNNI1+ cells by flow cytometry, Example 8 with Compound A
Assay type: cell-based
Details: DMSO control 10.2
Procedure: For detection of cardiomyocyte maturation, double knock-in human iPS cell lines, in which reporter protein sequences, EmGFP (Sequence Number 1) and mCherry (Sequence Number 2) were inserted into gene loci for TNNI1 and TNNI3, respectively, were prepared (the human iPS cells were prepared from episomal vector (loaded gene; OCT3/4, KLF4, SOX2, L-MYC, LIN28, mouse p53DD) using PBMC (LP_167, Sample ID: 20130318) purchased from CTL (reference literature; Okita K, et al. Stem Cells. 2012 Nov. 29. doi: 10.1002/stem.1293)).
The maintenance culture of the above-mentioned reporter iPS cell lines was carried out by a conventional method (Okita K, et al. Stem Cells. 2012 Nov. 29. doi: 10.1002/stem.1293).
For differentiation induction into cardiomyocytes, the reporter iPS cell lines were treated with 0.5×TrypLE select (Life Technologies, diluted in 1/2 with 0.5 mM EDTA/PBS) for 4 to 5 minutes, and the cells were exfoliated using a cell scraper (IWAKI), and then dissociated into the single cell by pipetting. […]

## O=C1c2ccc(N3CCOCC3)cc2CN1c1ccc2[nH]c(-c3ccc(Br)cc3)nc2c1 [Example 8, 2-(2-(4-bromophenyl)-1H-benzimidazol-5-yl)-5-(morpholin-4-yl)isoindolin-1-one]
Example 8 3 μM 8-9th days, then compound A 40 nM 10-15th days
  mCherry+ (%): 64.3%
Example 8 3 μM 8-9 days, then Example 8 3 μM + Compound A 40 nM 10-15th days
  mCherry+ (%): 85.1%
